Laboratory results from US20070202079A1, “Therapeutic compositions and methods useful in modulating protein tyrosine phosphatases” (priority 2006, published 2007).

What was measured:
U251 = U251 cell growth, MTT; assay type: cell-based, human; conditions: 100 μg/ml, day 6
Method: (§1) NIH3T3 (Yi, et al., Blood 85, 87 (1995)), WM9 (Forsberg, et al., Proc. Nat. Acad Sci. USA 90, 393 (1993)), DU145 (Mickey, et al., Cancer Res. 37, 4049 (1977)), LoVo (Drewinko, et al., Cancer Res. 36, 467 (1976)), HEY (Buick, et al., Cancer Res. 45, 3668 (1985)), U251 (Yoshida, et al., Cancer 50, 410 (1982)), A549 (Giard, et al., J. Natl. Cancer Inst. 51, 1417 (1973)) and SK-N-SH (Helson, et al., Cancer Res. 35, 2594 (1975)) cell lines have been described and were cultured in RPMI 1640 supplemented with 10% fetal calf serum (FCS). For measurement of sodium stibogluconate effects on cell growth in vitro, cells were cultured in the absence (−) or presence (+) of various amounts of sodium stibogluconate for 6 days with viable cells quantified by MTT assays (Mosmann, J. Immunol. Methods 65, 55 (1983)). Percentages of growth inhibition by sodium stibogluconate were calculated (.+−.x%).

Renca cells = assay: Renca cell growth, MTT; assay type: cell-based, murine; conditions: SSG 6.25-200 μg/ml, 6 days; listed as SSG
Text: Renca (Murphy, G. P., and W. J. Hrushesky. 1973. A murine renal cell carcinoma. J Natl Cancer Inst 50:1013), Jurkat (Gillis, S., and J. Watson. 1980. Biochemical and biological characterization of lymphocyte regulatory molecules. V. Identification of an interleukin 2-producing human leukemia T cell line. J Exp Med 152:1709) and WM9 (Forsberg, K., I. Valyi-Nagy, C. H. Heldin, M. Herlyn, and B. Westermark. 1993. Platelet-derived growth factor (PDGF) in oncogenesis: development of a vascular connective tissue stroma in xenotransplanted human melanoma producing PDGF-BB. Proc Natl Acad Sci USA 90:393) cell lines were obtained from a colleague at the Cleveland Clinic Foundation (CCF) and cultured in RPMI 1640 medium supplemented with 10% fetal calf serum (FCS). Recombinant IL-2 (Proleukin, 22 million IU/1.3 mg, Chiron, Emeryville, Calif.) was purchased from the CCF pharmacy. […] For cell growth inhibition assays, cells were cultured in absence or presence of various amounts of SSG for 6 days with viable cells quantified by MTT assays as described elsewhere (Pathak, M. K., and T. Yi. 2001. Sodium stibogluconate is a potent inhibitor of protein tyrosine phosphatases and augments cytokine responses in hemopoietic cell lines. J Immunol 167:3391).

WiT49-N1 = WiT49-N1 cell growth, MTT; assay type: cell-based, human; conditions: day 6
Method: (§2) For cell proliferation assays, cells were grown in 10% FCS culture medium containing various amounts of IFNs and/or sodium stibogluconate in 96 well plates and cultured at 37° C. for 3 or 6 days as indicated. The numbers of viable cells in proliferation assays were determined by MTT assays as described in Phatak et al., J. Immunol. 167, 3391 (2001).

C42 = C42 cell growth, MTT; assay type: cell-based, human
Method: as §2

TF-1 cells = assay: TF-1 cell proliferation assay; assay type: cell-based, human; conditions: 50 μg/ml
Method: The murine hematopoietic cell line Baf3 was maintained in RPMI 1640 medium supplemented with 10% fetal calf serum (FCS) and murine IL-3 (20 units/ml) as described previously in Damen et al., J. Biol. Chem. 270, 23402 (1995). Human myeloid cell line TF-1 was maintained in RPMI 1640 supplemented with 10% FCS and 40 ng/ml of recombinant human GM-CSF as described previously in Thomassen et al., Clin. Immunol. 95, 85 (2000). For cell proliferation assays, cells were washed in 10% FCS medium twice, resuspended in 10% FCS medium, incubated at 37° C. for 16 hours, and then cultured at 37° C. in 10% FCS medium containing various amounts of cytokines, sodium stibogluconate, or potassium antimonyl tartrate for 3-6 days as indicated. The cell numbers in proliferation assays were determined by an MTT assay or by microscopic cell counting as indicated.

[1] = tested on: WM9 PRL-1R86 transfectant; assay: growth of WM9 PRL-1R86 transfectant, MTT; assay type: cell-based, human; conditions: 50 or 100 μg/ml, 6 days
Method: as §1
The effects of sodium stibogluconate on intracellular PTPases were assessed using NIH3T3 or WM9 transfectants. NIH3T3 or WM9 cells were transfected with the pBabepuro vector (V) or pBabepuro expression constructs of Flag-tagged PRLs using Lipofectamine (BRL) following the manufacturer's procedures. […]

NB4 cells = assay: NB4 differentiation (NBT reduction, CD11b); assay type: cell-based, human; conditions: 6 days with drug, washed, 6 days without
Method: Differentiation of AML cell lines was assessed by their ability to produce superoxide as measured by reduction of NBT to formazan and by analysis of expression of CD11b surface marker by flow cytometry. For NBT reduction, each cell suspension was mixed with an equal volume of solution containing 1 mg/ml of NBT (Sigma) and 2.5 μg/ml of TPA for 30 minutes at 37° C. After incubation, cells containing the purple formazan deposits and cells devoid of NBT-reducing activity (white cells) in each sample were determined by counting 200 cells under microscope. Data is expressed as a percentage based on the following ratio: purple cells/purple+white cells. For analysis of cell surface antigens, cells were exposed to phycoerythrin (PE)-conjugated murine anti-human CD11b (DAKO Corp., Carpinteria, Calif.). Analysis of fluorescence was performed on a FACScan flow cytometer (Beckton Dickinson, Mountain View, Calif.).

A549 = A549 cell growth, MTT; assay type: cell-based, human; conditions: 100 μg/ml, day 6
Method: as §1

WM35 = WM35 cell growth, MTT; assay type: cell-based, human
Method: as §2

DS cells = assay: DS cell growth, MTT; assay type: cell-based, human; conditions: day 3; IFN-alpha 1,000 u/ml or sodium stibogluconate by itself
Method: as §2

MDA231 = MDA231 cell growth, MTT; assay type: cell-based, human; conditions: 50 μg/ml, day 6 culture
Method: as §2

O.O.O.O.O.O.O.O.O.O=C([O-])[C@@H]1[O][Sb]2([O-])([O][Sb]34([OH])[O][C@H]([C@H](O)CO)[C@H]([O]3)[C@H](C(=O)[O-])[O]4)[O][C@H]([C@H](O)CO)[C@@H]1[O]2.[Na+].[Na+].[Na+] [sodium stibogluconate]
cell killing of U251 (U251): near-complete cell killing
Renca cell growth in culture (Renca cells): failed to inhibit Renca cell proliferation
WiT49-N1 growth inhibition activity with IFN-alpha (WiT49-N1): not enhanced by IFN-alpha
sensitivity of C42 cells (C42): highly resistant
GM-CSF-induced proliferation of TF-1 cells (TF-1 cells; GM-CSF 5-40 ng/ml): augmented
growth inhibition activity of IFN-alpha on TF-1 cells in presence of drug (TF-1 cells; with GM-CSF and IFN-alpha): enhanced
growth inhibition of R86 cells [1]: only modest growth inhibition
reversal of NB4 differentiation after drug removal (NB4 cells): not reversed
cell killing of A549 (A549): near-complete cell killing
sensitivity of WM35 cells (WM35): minimally affected
DS cell growth (DS cells): modest activity
MDA231 cells, single agent (MDA231): killed all cells
